Experimental data taken from US10450300B2, “Wnt signaling pathway inhibitors and therapeutic applications thereof” (Suzhou Yunxuan Yiyao Keji Youxian Gongsi, priority 2015, dated 2019).

Test system: Wnt pathway
Assay: Wnt pathway Super-top flash (STF) reporter gene assay (primary assay)
Assay type: cell-based
Conditions: HEK293 STF cells co-cultured 1:1 with L Wnt3A cells; 48 h incubation; inhibition of luminescence signaling
Procedure: The primary assay is based on Wnt pathway Super-top flash (STF) reporter gene assay:
HEK293 STF stable clones (HEK293 cells stably transfected with “Super-Top Flash” TCF-luciferase reporter plasmid) were kept in complete culture medium (DMEM with 4 mM L-Gln, 1.5 g/L sodium bicarbonate and 4.5 g/L glucose containing 6 μg/mL Blasticidin and 10% FBS). L Wnt3A cells (CRL-2647, ATCC) were kept in DMEM (Gibico) containing 10% FBS (Hyclone). HEK293 STF and L Wnt3A cells were harvested when 90% confluence and cell suspension was mixed with a fixed ratio of 1:1 (HEK293 STF: L Wnt3A). 100 μL/well of mixed cells suspension was added to the 96-well-plate with final cell concentration of 12,000 cells/well and then cultured for an additional 24 hours before adding compounds.
Compounds were diluted in DMSO in sequence and then diluted with DMEM medium. 20 μL medium containing compound was added to the cells according to the pre-setting dose. Cell plates were incubated at 37° C. for an additional 48 hours.
50 μL luciferase solution (Bright-Glo, Promega) was added to each well […] the 48 h incubation. The plates were incubated at room temperature for 5 min under gentle shaking. Luminescence signaling was measured with a plate reader (PHERAstar FS, BMG). The IC50 (potency) of compounds was calculated based on the inhibition of luminescence signaling.

SMILES	IC50 [nM]
Cc1cc(-c2ccc(CNc3ncnc(-c4ccc5[nH]cnc5c4)c3F)cc2)ccn1 [Compound A-10]	285
Cc1cc(-c2ccc(CNc3ncnc(N4CCn5c(nnc5C(F)(F)F)C4)c3F)cc2)ccn1 [Compound A-59]	230
Cc1cc(-c2ccc(CNc3ncnc(N4CCc5ncsc5C4)c3F)cc2)ccn1 [Compound A-47]	0.94
Cc1cc(-c2ncc(CNc3nccc(-c4ccc5nnccc5c4)c3F)cc2F)ccn1 [Compound A-110]	1
Cc1cc(-c2ccc(CNc3ncnc(-c4ccccc4Cl)c3F)cc2)ccn1 [Compound A-18]	480
CSc1nc(NCc2ccc(-c3ccnc(C)c3)cc2)cc(-c2ccc3ccccc3c2)n1 [Compound A-140]	3000
Cc1cc(-c2ccc(CNc3ncnc(-c4ccc5ncccc5c4)c3F)cc2)ccn1 [Compound A-4]	0.3
N#Cc1cnc2cc(CNc3ncnc(N4CCc5ncccc5C4)c3F)ccc2c1 [Compound A-72]	0.64
Cc1cc(-c2ccc(CNc3ncnc(N4CCc5c(C#N)cccc5C4)c3F)cc2)ccn1 [Compound A-53]	89
Cc1cc(-c2ncc(CNc3ncnc(N4CCc5ncccc5C4)c3F)cc2C#N)ccn1 [Compound A-56]	1
Cc1cc(-c2ncc(CNc3ncnc(-c4ccc5ccccc5c4)c3F)cc2C)ccn1 [Compound A-33]	1.4
Cc1cc(-c2ncc(CNc3ncnc(N4CCn5ncnc5C4)c3F)cc2F)ccn1 [Compound A-58]	34
CS(=O)(=O)CCNc1ccc(CNc2nccc(-c3ccc4ncccc4c3)n2)cn1 [Compound A-181]	350
Cc1cc(-c2ncc(CNc3nccc(-c4ccc5nonc5c4)c3F)cc2F)ccn1 [Compound A-114]	8
c1ccc2cc(-c3cc(NCc4ccc(-c5ccncc5)cc4)ncn3)ccc2c1 [Compound A-146]	68
Cc1cc(-c2ccc(CNc3nccc(N4CCc5ncccc5C4)n3)cc2)ccn1 [Compound A-156]	12
COc1cc(CNc2ncnc(N3CCn4nccc4C3)c2F)cnc1-c1ccnc(C)c1 [Compound A-94]	0.8
Cc1cc(-c2ccc(CNc3ncnc(-c4ccc(Cl)c(Cl)c4)c3F)cc2)ccn1 [Compound A-21]	14
Cc1cc(-c2ncc(CNc3ncnc(-c4ccc5ncccc5c4)c3F)cn2)ccn1 [Compound A-60]	0.81
Cc1cc(-c2ccc(CNc3ncnc(-c4ccc5cccnc5c4)c3F)cc2)ccn1 [Compound A-3]	36
Cc1cc(-c2ccc(CNc3cc(N4CCc5ccccc5C4)ncn3)cc2)ccn1 [Compound A-133]	34
O=S1(=O)CCN(c2ccc(CNc3ncnc(-c4ccc5ncccc5c4)c3F)cn2)CC1 [Compound A-68]	16
Cc1cc(-c2ccc(CNc3ncnc(-c4ccc5ccccc5c4)c3C)cc2)ccn1 [Compound A-143]	2000

SMILES	IC50 [nM]
Cc1cc(-c2ncc(CNc3ncnc(N4CCc5ncccc5C4)c3F)cn2)ccn1 [Compound A-61, 6-(7,8-dihydro-1,6-naphthyridin-6(5H)-yl)-5-fluoro-N-((2-(2-methylpyridin-4-yl)pyrimidin-5-yl)methyl)pyrimidin-4-amine]	1.3
CNc1ncc2c(n1)CCN(c1cc(NCc3ccc(-c4ccnc(C)c4)cc3)ncn1)C2=O [Compound A-138, 2-(methylamino)-6-(6-(4-(2-methylpyridin-4-yl)benzylamino)pyrimidin-4-yl)-7,8-dihydropyrido[4,3-d]pyrimidin-5(6H)-one]	712
Fc1c(NCc2ccc(-c3ccncn3)cc2)ncnc1-c1ccc2ncccc2c1 [Compound A-77]	1.6
Cc1cc(-c2ncc(CNc3ncnc(N4Cc5cccnc5C4)c3F)cc2F)ccn1 [Compound A-88]	7.7
Cc1cc(-c2ncc(CNc3ncnc(-c4ccc5ncsc5c4)c3F)cc2C)ccn1 [Compound A-51]	1
Cc1cc(-c2ccc(CNc3ncnc(N4Cc5ccccc5C4)c3F)cc2)ccn1 [Compound A-52]	17
Cc1cc(-c2ncc(CNc3nccc(-c4ccc5ncccc5c4)n3)cc2C)ccn1 [Compound A-170]	3.7
Cc1cc(-c2ccc(CNc3ncnc(-c4ccc5ccccc5c4)n3)cc2)ccn1 [Compound A-167]	120
Cc1cc(-c2ncc(CNc3nccc(-c4ccc5ncccc5c4)n3)cn2)ccn1 [Compound A-172]	1.7
Cc1cc(-c2ccc(CNc3ncnc(-c4ccc5ccccc5c4)c3F)cn2)ccn1 [Compound A-30]	23
Cc1cc(-c2ncc(CNc3ncnc(N4CCS(=O)(=O)CC4)c3F)cc2F)ccn1 [Compound A-79]	416
Cc1cc(-c2ncc(CNc3nccc(-c4cncc(Cl)c4)c3F)cc2C#N)ccn1 [Compound A-130]	0.11
Cn1nccc1-c1ccc(CNc2nccc(-c3ccc4ncccc4c3)c2F)cc1 [Compound A-113]	16
Cc1cc(-c2ncc(CNc3ncnc(-c4ccc5ncccc5c4)c3F)cc2F)ccn1 [Compound A-36]	0.5
Cc1cc(-c2ccc(CNc3cc(N4CCc5ccccc5C4=O)ncn3)cc2)ccn1 [Compound A-145]	1130
Cc1cc(-c2ccc(CNc3nccc(N4CCc5ccccc5C4)n3)cc2)ccn1 [Compound A-155]	229
Cc1cc(-c2ncc(CNc3ncnc(N4CCn5nncc5C4)c3F)cc2C#N)ccn1 [Compound A-92]	10
Cc1cc(-c2ncc(CNc3ncnc(-c4ccc5ncccc5c4)c3F)cc2C#N)ccn1 [Compound A-57]	0.39
Cc1cc(-c2ccc(CNc3ncnc(-c4ccc5ccccc5c4)c3C#N)cc2)ccn1 [Compound A-144]	40
Cc1cc(-c2ncc(CNc3ncnc(N4CCc5nccnc5C4)c3F)cc2F)ccn1 [Compound A-90]	1.2
Cc1cc(-c2ncc(CNc3nnc(-c4ccc5ncccc5c4)s3)cc2C#N)ccn1 [Compound A-185]	4.3
COc1cc(CNc2nccc(-c3ccc4ncccc4n3)c2F)cnc1-c1ccnc(C)c1 [Compound A-125]	0.06
Cc1cc(-c2ncc(CNc3ncnc(-c4ccc5ncccc5c4)c3F)cc2C)ccn1 [Compound A-34]	3

SMILES	IC50 [nM]
Cc1cc(-c2ncc(CNc3nccc(-c4cncc(C#N)c4)c3F)cc2C#N)ccn1 [Compound A-131]	1
Cc1cc(-c2ccc(CNc3ncnc(-c4ccc5nc(C)ccc5c4)c3F)cc2)ccn1 [Compound A-5]	2.1
N#Cc1ccc2nc(CNc3nccc(-c4ccc5ncccc5c4)c3F)ccc2c1 [Compound A-109]	10
CS(=O)(=O)CCNc1ccc(CNc2nccc(-c3ccc4ncccc4c3)c2F)cn1 [Compound A-112]	10
Cc1cc(-c2ccc(CNc3ccnc(-c4ccc5ncccc5c4)n3)cc2)ccn1 [Compound A-157]	3000
Cc1cc(-c2ncc(CNc3nccc(-c4ccc(=O)n(C)c4)c3F)cc2F)ccn1 [Compound A-117]	2
Cc1cc(-c2ncc(CNc3nccc(-c4ccc5ncccc5n4)c3O)cc2F)ccn1 [Compound A-176, 2-((3-fluoro-2′-methyl-2,4′-bipyridin-5-yl)methylamino)-4-(1,5-naphthyridin-2-yl)pyridin-3-ol]	18
Cc1cc(-c2ccc(CNc3ncnc(-c4ccc5ncccc5c4)c3F)cc2)cc[n+]1[O-] [Compound A-64, 4-(4-((5-fluoro-6-(quinolin-6-yl)pyrimidin-4-ylamino)methyl)phenyl)-2-methylpyridine 1-oxide]	16
Cc1cc(-c2ncc(CNc3nccc(-c4ccc5ncccc5c4)n3)cc2C#N)ccn1 [Compound A-171]	0.31
COc1cc(CNc2nsc(-c3ccc4ncccc4c3)n2)cnc1-c1ccnc(C)c1 [Compound A-193]	0.07
Cc1cc(-c2ccc(CNc3cccc(-c4ccc5ccccc5c4)n3)cc2)ccn1 [Compound A-150]	250
Cc1cc(-c2ccc(CNc3ncnc(-c4ccccc4)c3F)cc2)ccn1 [Compound A-17]	> 1000
COc1cc(CNc2nsc(-c3cc4cccnc4cn3)n2)cnc1-c1ccnc(C)c1 [Compound A-196, N-((3-methoxy-2′-methyl-2,4′-bipyridin-5-yl)methyl)-5-(1,7-naphthyridin-6-yl)-1,2,4-thiadiazol-3-amine]	0.78
Cc1cc(-c2ncc(CNc3nsc(-c4ccc5ncccc5c4)n3)cc2C)ccn1 [Compound A-191]	0.38
Cc1cc(-c2ccc(CNc3ncnc(N4CCc5ccc(F)cc5C4)c3F)cc2)ccn1 [Compound A-23]	15
Cc1cc(-c2ccc(CNc3cc(-c4ccc5ccccc5c4)nc(N4CCCC4)n3)cc2)ccn1 [Compound A-141]	3000
NC(=O)c1ccc2cc(CNc3ncnc(-c4ccc5ncccc5c4)c3F)ccc2c1 [Compound A-43, 6-((5-fluoro-6-(quinolin-6-yl)pyrimidin-4-ylamino)methyl)-2-naphthamide]	75
Cc1cc(-c2ncc(CNc3nccc(-c4ccc5ncnn5c4)c3F)cc2F)ccn1 [Compound A-123]	0.12
Fc1c(NCc2ccc(-n3ccnc3)cc2)ncnc1-c1ccc2ccccc2c1 [Compound A-40]	> 1000
Cc1cc(-c2ccc(CNc3cc(-c4ccc5ncccc5c4)ccn3)cc2)ccn1 [Compound A-166]	3.6
Cc1cc(-c2ccc(C(C)Nc3nccc(-c4ccc5ncccc5c4)c3F)cc2)ccn1 (stereo not shown) [Compound A-102]	0.54
